According to US9464064B2, “HCV helicase inhibitors and methods of use thereof” (University of Kansas, priority 2011, dated 2016):
Non-standard residues stand in square brackets, D forms with d. Residues, ends and D or L forms follow the SMILES beside them. ξ: configuration not given here. *: point of attachment. ξNMe2Val = CC(C)C(C(=O)*)N(C)C; NMeV = CN[CH](C(=O)O)C(C)C; NHBn = c1ccc(CN*)cc1

Molecular target: T1, HCV NS3 helicase NS3h_1b(con1) (Hepatitis C virus genotype 1b, UniProt Q9WMX2)
T1 construct: truncated C-terminally His-tagged NS3 proteins lacking the N-terminal protease, called NS3h; His-tag (C); made in house
Assay: MBHA screen of NCI mechanistic set library at 20 μM (percent inhibition, compound interference)
Format: biochemical
Conditions: compounds at 20 μM; for Inh. (%) (Inhibition): calculated from Equation 1
Procedure, shortened: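 Molecular beacon-based DNA unwinding assay; compounds screened at 20 μM in triplicate, with DMSO-only negative and 500 nM dT20 positive controls. Fluorescence (ex 643/em 670 nm) was read before and 30 min after adding ATP to 1 mM. Percent inhibition came from the change relative to DMSO controls; interference from pre-ATP fluorescence versus DMSO controls.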

[1] = assay interference calculated with Equation 2 (fluorescence vs DMSO-only controls before ATP)
[2] = MBHA with DNA substrate, assay interference calculated with Equation 2

T1 sequence (Q9WMX2 1192-1657): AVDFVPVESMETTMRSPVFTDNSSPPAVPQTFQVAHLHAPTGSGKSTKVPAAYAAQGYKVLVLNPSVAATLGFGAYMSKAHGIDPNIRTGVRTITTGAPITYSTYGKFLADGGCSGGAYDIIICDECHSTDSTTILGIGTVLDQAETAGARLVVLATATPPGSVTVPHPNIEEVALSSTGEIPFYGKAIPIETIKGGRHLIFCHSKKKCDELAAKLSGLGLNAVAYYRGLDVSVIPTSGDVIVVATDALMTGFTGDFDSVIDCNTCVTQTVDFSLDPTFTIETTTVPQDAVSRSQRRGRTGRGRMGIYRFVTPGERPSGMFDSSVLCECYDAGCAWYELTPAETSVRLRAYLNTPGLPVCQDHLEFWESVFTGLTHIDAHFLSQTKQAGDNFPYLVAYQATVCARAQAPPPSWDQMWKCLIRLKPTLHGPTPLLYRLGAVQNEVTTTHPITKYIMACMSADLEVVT

Row | Inh. (%) (Inhibition) (MBHA with a DNA substrate) | Int.* (Ratio) (Interference) [1] | Int.* (Ratio) (Interference) [2] | Inh. (%) (Inhibition) (MBHA with DNA substrate) | SMILES
1 | −5.5 | 0.78 |  |  | O=C1C=C(N2CCNCC2)C(=O)c2c(O)ccc(O)c21 [Compound 658144]
2 |  |  | 0.90 | 3.1 | CC(=O)c1sc2[n+](c1C)C(=O)/C(=C\c1ccccc1Cl)S2 [Compound 658285]
3 | −22.4 | 1.08 |  |  | CCOC(=O)c1sc2[n+](c1C)C(=O)/C(=C/c1ccc([N+](=O)[O-])cc1)S2.[Cl-] [Compound 658293]
4 |  |  | 1.00 | −18.3 | CCn1c(O)c(C=Nc2ccccc2)s/c1=N/Nc1ncc(CC(=O)Nc2ccccc2C)s1 [Compound 658350]
5 |  |  | 1.09 | −18.7 | CN(C)CCCCN1CCc2c(n(C)c3ccccc23)C1=O [Compound 658388]
6 |  |  | 0.95 | 6.7 | CC(=O)N=C1N(/C=C2\C(=O)Oc3ccccc3C2=O)C(=O)/C(=C/c2ccccc2Cl)N1C [Compound 658494]
7 |  |  | 0.90 | −7.9 | COc1ccc(NC(=O)C(=O)/C=C(\O)c2ccccc2)cc1 [Compound 658709]
8 | 8.7 | 0.92 |  |  | O=C(CC(O)(C(F)(F)F)C(F)(F)Cl)CC(O)(C(F)(F)F)C(F)(F)Cl (stereo not drawn) [Compound 659174]
9 | −6.6 | 1.06 |  |  | CN=c1sc2c(n1C)C(=O)c1ccccc1C2=O [Compound 659501]
10 |  |  | 0.44 | 6.1 | Cl.O=C1C=CC(=O)c2c(O)c(N3CCN(CCOCCO)CC3)c(Br)c(O)c21 [Compound 659999]
11 | −4.6 | 1.02 |  |  | Cc1nn(-c2ccccc2)c2c1CC(=O)Nc1ccccc1-2 [Compound 662553]
12 |  |  | 0.93 | 14.5 | C=C(Cl)C(Cl)(CBr)CCC(Br)C(C)(C)Cl (stereo not drawn) [Compound 662825]
13 |  |  | 0.84 | 14.5 | O=C1C(C(O)(C(F)(F)F)C(F)(F)F)CCC1C(O)(C(F)(F)F)C(F)(F)F (stereo not drawn) [Compound 664181]
14 | −22.3 | 1.18 |  |  | CN(NC1=NCCO1)c1ccc2ccccc2c1 [Compound 664286]
15 | 9.8 | 0.96 |  |  | CC(Cc1ccccc1)NC1=NCCO1 (stereo not drawn) [Compound 664298]
16 |  |  | 0.82 | 25.5 | CC(=O)C(N1CCCCC1)C(O)(C(F)(F)F)C(F)(F)F (stereo not drawn) [Compound 664327]
17 |  |  | 1.01 | −14.5 | O/N=C(\CC(O)(C(F)(F)F)C(F)(F)F)c1cccc(Cl)c1 [Compound 664329]
18 |  |  | 1.03 | −1.8 | CC1=CC(=O)c2cccc(NC3=NCCO3)c21 [Compound 664331]
19 |  |  | 0.98 | −10.6 | O=C1Cc2c([nH]c3ccc(Br)cc23)-c2ccccc2N1 [Compound 664704]
20 |  |  | 0.97 | −1.3 | CCCCCCC1CC(=O)C1(Cl)Cl (stereo not drawn) [Compound 666526]
21 |  |  | 1.06 | 12.3 | CCOC(=O)Cc1cc(=O)oc2cc(O)ccc12 [Compound 667235]
22 | −7.0 | 1.09 |  |  | CN(C)c1cccc(/C=C(\C#N)c2ccccc2)c1 [Compound 667251]
23 |  |  | 0.89 | 33.3 | S=C1Nc2cnc3ccccc3c2SC1c1ccccc1 (stereo not drawn) [Compound 667467]
24 |  |  | 0.94 | 0.4 | C=C1CC(Cn2cc(Br)c(=O)[nH]c2=O)(c2ccc(-c3ccccc3)cc2)OC1=O (stereo not drawn) [Compound 668260]
25 |  |  | 0.83 | 28.1 | C=C1CC(COc2cc(=O)oc3ccccc23)(c2ccccc2)OC1=O (stereo not drawn) [Compound 668270]
26 |  |  | 0.95 | 15.2 | O=C(ON=C1c2ccccc2C(Br)C(Br)c2ccccc21)c1ccccc1 (stereo not drawn) [Compound 670140]

Row | Inh. (%) (Inhibition) (MBHA with a DNA substrate) | Int.* (Ratio) (Interference) [1] | Int.* (Ratio) (Interference) [2] | Inh. (%) (Inhibition) (MBHA with DNA substrate) | SMILES
27 |  |  | 0.88 | 17.9 | CN(C)CCOC1(Cc2ccc(Cl)cc2Cl)CCC(C(C)(C)C)CC1.Cl (stereo not drawn) [Compound 670224]
28 |  |  | 1.04 | −16.0 | Cc1ccc(CC2(OCCN(C)C)CCC(C(C)(C)C)CC2)cc1.O=C(O)/C=C/C(=O)O (stereo not drawn) [Compound 670225]
29 |  |  | 1.11 | −2.6 | CN(C)CCOC1(Cc2ccc(F)cc2)CCC(C(C)(C)C)CC1.O=C(O)/C=C/C(=O)O (stereo not drawn) [Compound 670226]
30 | −28.8 | 1.17 |  |  | Cc1ccc(CC2(OCCN(C)C)CCC(C(C)(C)C)CC2)cc1.O=C(O)/C=C/C(=O)O (stereo not drawn) [Compound 670229]
31 |  |  | 0.90 | 1.2 | CC(=O)c1sc2c(c1OC(=O)c1ccc(Cl)cc1Cl)c(=O)n(-c1ccccc1)c(=S)n2-c1ccccc1 [Compound 671136]
32 | −5.4 | 0.86 |  |  | COc1ccc(N=C2C(=Nc3ccc(OC)cc3)N(c3ccc(N(C)C)cc3)C(=S)N2c2ccc(OC)cc2)cc1 [Compound 671394]
33 |  |  | 0.89 | −11.4 | N[C@@H](Cc1ccc2oc3cc(=O)c4ccccc4c-3nc2c1)C(=O)O [Compound 672425]
34 |  |  | 1.08 | −9.6 | COC(=O)C1CCC(=O)N1C(c1ccc(OC)cc1)c1cc(OC)c(OC)c(OC)c1 (stereo not drawn) [Compound 673622]
35 | −4.0 | 1.04 |  |  | NC(=O)N/N=C1\CC2C3CC4C2C4C13 (stereo not drawn) [Compound 673912]
36 |  |  | 0.98 | −7.5 | Cc1cc(-c2nc3ccccc3s2)ccc1N [Compound 674495]
37 | −3.8 | 1.04 |  |  | CCCN(CCC)C(=S)Sc1nc(C)nc(N2CCN(c3nc(C)nc(SC(=S)N(CCC)CCC)c3[N+](=O)[O-])CC2)c1[N+](=O)[O-] [Compound 675593]
38 |  |  | 0.96 | 17.1 | COc1ccccc1[S+]([O-])Nc1ccccc1 (stereo not drawn) [Compound 676561]
39 |  |  | 0.46 | −1.7 | O=C(O)/C=C\C(=O)O.[N-]=[N+]=Nc1ccc2c(c1)Sc1ccccc1N2CCCCN1CCN(Cc2ccc(C(=O)c3ccccc3)cc2)CC1 [Compound 676963]
40 |  |  | 1.00 | −18.1 | COc1ccc(NC(=O)CC(=O)N2N=C(C)C(N=Nc3ccc(S(=O)(=O)c4ccc(N=NC5C(=O)N(C(=O)CC(=O)Nc6ccc(OC)cc6)N=C5C)cc4)cc3)C2=O)cc1 (stereo not drawn) [Compound 677392]
41 |  |  | 0.89 | 28.1 | COc1ccc(OC)c2nc3c(C(=O)NCCN(C)C)cccc3nc12.Cl [Compound 678917]
42 |  |  | 1.05 | 0.6 | CN(C)CCNC(=O)c1cccc2[nH]c(-c3ccncc3)nc12.Cl [Compound 678932]
43 |  |  | 0.85 | −2.5 | COC(=O)c1c[nH]c2c1-c1cc(C(=O)OCc3ccccc3)n(S(=O)(=O)c3ccc(C)cc3)c1C(=O)C2=O [Compound 679524]
44 |  |  | 0.98 | 1.5 | COC(=O)c1cc(-c2c[nH]cc2C(=O)OCc2ccccc2)cn1S(=O)(=O)c1ccc(C)cc1 [Compound 679527]
45 | 10.2 | 0.92 |  |  | CC1=C/C(=N\OCC(=O)O)CC(c2ccc(C(C)C)cc2)C1 (stereo not drawn) [Compound 680506]
46 | −35.7 | 0.99 |  |  | Cl.NC1(CCNC(=O)c2ccccc2)CCN(C(=O)c2ccccc2)CC1 [Compound 680509]
47 |  |  | 0.93 | −1.4 | Cc1cc(N(C)C)ccc1N=Nc1ccc2ncccc2c1 [Compound 680516]
48 |  |  | 0.92 | −16.2 | CCC(C#N)(c1ccccc1)N(CCc1ccccc1)C(=O)c1ccccc1 (stereo not drawn) [Compound 681741]
49 |  |  | 0.98 | 20.4 | N#CC(c1ccccc1)N(CCCCCCN(C(=O)c1ccccc1)C(C#N)c1ccccc1)C(=O)c1ccccc1 (stereo not drawn) [Compound 681744]
50 |  |  | 0.96 | −7.3 | COc1ccc(-c2cc(-c3ccccc3)nc3c2CC(=O)Nc2ccccc2-3)cc1OC [Compound 682769]
51 |  |  | 0.97 | −1.8 | NC1N=C(c2ccc(Cl)cc2)C2=C(N1)c1ccccc1CC2 (stereo not drawn) [Compound 682864]

Row | SMILES | Inh. (%) (Inhibition) (MBHA with a DNA substrate) | Int.* (Ratio) (Interference) [1] | Int.* (Ratio) (Interference) [2] | Inh. (%) (Inhibition) (MBHA with DNA substrate)
52 | COc1ccc(NC2=NCCO2)c2c1CCCC2 [Compound 663996] |  |  | 1.08 | −2.7
53 | CC(C)C(NC(=O)C(C(C)C)N(C)C)C(=O)N(C)C(C(=O)N1CCCC1C(=O)N1CCCC1C(=O)NCc1ccccc1)C(C)C.Cl (stereo not drawn) [Compound 669356] (ξNMe2Val-V[NMeV]PP-NHBn; configuration not given here) |  |  | 1.08 | −9.2
54 | N#CC(NCc1cccc(CNC(C#N)c2ccccc2)c1)c1ccccc1 (stereo not drawn) [Compound 681730] |  |  | 0.88 | −2.0
